Reference: patent US20080009418A1, “Selective Inhibitors” (Alchemia LTD., priority 2004, published 2008)

Experiments:
Human δ-opioid (DOP) = biological target: T1, Human δ-opioid (DOP) (Homo sapiens, UniProt P41143); assay: Radioligand binding, human δ-opioid (DOP) membranes, FlashPlate, [3H]-Bremazocine; conditions: compound at 10 μM, [3H]-Bremazocine
T1 construct: purchased Perkin Elmer Biosignal
Method in brief: (§1)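 Cloned human receptor membranes were coated onto FlashPlate wells and incubated with radioligand and compound (added from a 0.5 mM DMSO daughter plate) for 1 hour at room temperature in the dark. Scintillation counting gave percent inhibition, with DMSO defining total and reference ligand defining non-specific binding.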

Human κ-Opioid (KOP) = biological target: T2, Human κ-Opioid (KOP) (Homo sapiens, UniProt P41145); assay: Radioligand binding, human κ-opioid (KOP) membranes, filtration, [3H]-Diprenorphine; conditions: compound at 10 μM, [3H]-Diprenorphine
T2 construct: purchased Perkin Elmer Biosignal
Method in brief: (§2)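 Percent inhibition of radioligand binding measured on recombinant human membranes: NK1 with [125I]-Substance P, KOP with [3H]-Diprenorphine. Incubation 1 h at room temperature, then harvest onto 0.3% PEI-soaked filters, cold Tris-HCl pH 7.4 washes and scintillation counting; non-specific binding from reference ligand wells.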

Human Melanocortin (MC3) = biological target: T3, Human Melanocortin (MC3) (Homo sapiens, UniProt P41968); assay: Radioligand binding, human melanocortin MC3 membranes, FlashPlate, [125I]-NDP-αMSH; conditions: compound at 10 μM, [125I]-NDP-αMSH
T3 construct: purchased Perkin Elmer Biosignal
Method in brief: as §1

Human Melanocortin (MC4) = biological target: T4, Human Melanocortin (MC4) (Homo sapiens, UniProt P32245); assay: Radioligand binding, human melanocortin MC4 membranes, FlashPlate, [125I]-NDP-αMSH; conditions: compound at 10 μM, [125I]-NDP-αMSH
T4 construct: purchased Perkin Elmer Biosignal
Method in brief: as §1

Human melanocortin (MC5) = biological target: T5, Human melanocortin (MC5) (Homo sapiens, UniProt P33032); assay: Radioligand binding, human melanocortin MC5 membranes, FlashPlate, [125I]-NDP-αMSH; conditions: compound at 10 μM, [125I]-NDP-αMSH
T5 construct: purchased Perkin Elmer Biosignal
Method in brief: as §1

[1] = biological target: T6, Human melanin-concentrating hormone (MCH1) (Homo sapiens, UniProt Q99705); assay: Radioligand binding, human melanin-concentrating hormone MCH1 membranes, FlashPlate, [125I]-S36057; conditions: compound at 10 μM
T6 construct: purchased Perkin Elmer Biosignal
Method in brief: as §1

Human μ-opioid (MOP) = biological target: T7, Human μ-opioid (MOP) (Homo sapiens, UniProt P35372); assay: Radioligand binding, human μ-opioid (MOP) membranes, FlashPlate, [3H]-Naloxone; conditions: compound at 10 μM, [3H]-Naloxone
T7 construct: purchased Perkin Elmer Biosignal
Method in brief: as §1

Human neurokinin (NK1) = biological target: T8, Human neurokinin (NK1) (Homo sapiens, UniProt P25103); assay: Radioligand binding, human neurokinin NK1 membranes, filtration, [125I]-Substance P; conditions: compound at 10 μM, [125I]-Substance P
T8 construct: purchased Perkin Elmer Biosignal
Method in brief: as §2

[2] = biological target: T9, Human neuropeptide Y (NPY-Y1) (Homo sapiens, UniProt P25929); assay: Radioligand binding, human neuropeptide Y NPY-Y1 membranes, FlashPlate, [125I]-PYY; conditions: compound at 10 μM, [125I]-PYY
T9 construct: purchased Perkin Elmer Biosignal
T9 sequence (P25929 1-384): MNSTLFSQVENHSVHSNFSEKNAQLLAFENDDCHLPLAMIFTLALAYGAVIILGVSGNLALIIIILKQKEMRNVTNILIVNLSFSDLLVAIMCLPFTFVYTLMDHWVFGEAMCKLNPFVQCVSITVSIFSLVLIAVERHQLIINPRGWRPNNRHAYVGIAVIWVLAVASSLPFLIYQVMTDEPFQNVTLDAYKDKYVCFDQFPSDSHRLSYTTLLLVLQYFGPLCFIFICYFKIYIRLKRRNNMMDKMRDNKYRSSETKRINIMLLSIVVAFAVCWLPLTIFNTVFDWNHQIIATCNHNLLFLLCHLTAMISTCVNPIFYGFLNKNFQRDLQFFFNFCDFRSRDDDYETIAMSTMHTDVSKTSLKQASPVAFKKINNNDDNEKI
Method in brief: as §1

Human opioid (ORL1) = biological target: T10, Human opioid (ORL1) (Homo sapiens, UniProt P41146); assay: Radioligand binding, human opioid ORL1 membranes, FlashPlate, [125I]-Nociceptin; conditions: compound at 10 μM, [125I]-Nociceptin
T10 construct: purchased Perkin Elmer Biosignal
Method in brief: as §1

Mouse urotensin (mUR2) = biological target: T11, Mouse urotensin (mUR2) (Mus musculus, UniProt Q8VIH9); assay: Radioligand binding, mouse urotensin mUR2 membranes, FlashPlate, [125I]-Urotensin II; conditions: compound at 10 μM, [125I]-Urotensin II
T11 construct: purchased Perkin Elmer Biosignal
T11 sequence (Q8VIH9 1-385): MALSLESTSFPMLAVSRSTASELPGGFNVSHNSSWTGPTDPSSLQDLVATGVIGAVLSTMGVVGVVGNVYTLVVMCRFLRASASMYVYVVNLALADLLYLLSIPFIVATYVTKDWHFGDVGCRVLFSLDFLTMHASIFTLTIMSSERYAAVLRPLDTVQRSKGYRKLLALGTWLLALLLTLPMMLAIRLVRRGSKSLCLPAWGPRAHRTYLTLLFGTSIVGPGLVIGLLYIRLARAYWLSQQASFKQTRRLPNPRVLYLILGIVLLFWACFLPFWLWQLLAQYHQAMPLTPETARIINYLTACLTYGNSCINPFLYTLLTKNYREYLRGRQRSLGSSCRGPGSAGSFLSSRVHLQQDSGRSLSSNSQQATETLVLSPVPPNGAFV
Method in brief: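 Cloned mouse urotensin (mUR2) receptor membranes from Perkin Elmer Biosignal were immobilized in FlashPlate microplates using a proprietary coating. Each well got 19.5 μl buffer, then 0.5 μl of DMSO, reference ligand, or compound. Adding 5 μl of [125I]-Urotensin II, diluted to 5× final concentration in binding buffer, started binding. Plates were sealed with TopSeal-A and incubated 1 hour at room temperature in the dark. Wells were counted for 30 seconds each on a TopCount after a 60-second delay, and percentage inhibition was calculated.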

[3] = [125I]-S36057, human MCH1 membranes, 10 µM
[4] = [125I]-S36057, human MCH1 membranes

T4 sequence (P32245 whole entry): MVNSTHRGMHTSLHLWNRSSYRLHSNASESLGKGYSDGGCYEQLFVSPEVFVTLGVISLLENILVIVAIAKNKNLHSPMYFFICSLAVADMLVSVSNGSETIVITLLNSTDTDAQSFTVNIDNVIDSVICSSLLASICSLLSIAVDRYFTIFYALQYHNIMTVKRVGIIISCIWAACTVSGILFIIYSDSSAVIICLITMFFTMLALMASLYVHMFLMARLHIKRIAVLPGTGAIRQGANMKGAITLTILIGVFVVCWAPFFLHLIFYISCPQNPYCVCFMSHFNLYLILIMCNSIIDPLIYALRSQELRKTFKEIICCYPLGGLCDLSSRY
T2 sequence (P41145 whole entry): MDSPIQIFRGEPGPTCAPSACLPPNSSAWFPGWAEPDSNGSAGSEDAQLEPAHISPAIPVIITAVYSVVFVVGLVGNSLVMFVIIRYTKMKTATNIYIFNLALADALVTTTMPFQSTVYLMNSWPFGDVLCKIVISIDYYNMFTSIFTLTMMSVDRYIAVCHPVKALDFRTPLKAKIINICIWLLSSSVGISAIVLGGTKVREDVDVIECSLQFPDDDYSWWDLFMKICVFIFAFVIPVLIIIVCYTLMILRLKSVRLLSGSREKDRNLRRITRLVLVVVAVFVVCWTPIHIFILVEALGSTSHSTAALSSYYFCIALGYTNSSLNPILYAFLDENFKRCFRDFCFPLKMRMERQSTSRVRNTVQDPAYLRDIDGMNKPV
T10 sequence (P41146 whole entry): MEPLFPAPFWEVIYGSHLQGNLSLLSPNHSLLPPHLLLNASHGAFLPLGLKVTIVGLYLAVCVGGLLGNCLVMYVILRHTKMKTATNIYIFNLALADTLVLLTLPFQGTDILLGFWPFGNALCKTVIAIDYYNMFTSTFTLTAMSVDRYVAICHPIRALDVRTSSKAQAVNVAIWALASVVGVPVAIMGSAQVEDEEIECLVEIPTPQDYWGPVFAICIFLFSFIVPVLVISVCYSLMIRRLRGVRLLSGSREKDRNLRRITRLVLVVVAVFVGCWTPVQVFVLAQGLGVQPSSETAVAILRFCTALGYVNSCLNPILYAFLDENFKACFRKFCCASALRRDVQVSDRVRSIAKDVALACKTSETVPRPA
T1 sequence (P41143 whole entry): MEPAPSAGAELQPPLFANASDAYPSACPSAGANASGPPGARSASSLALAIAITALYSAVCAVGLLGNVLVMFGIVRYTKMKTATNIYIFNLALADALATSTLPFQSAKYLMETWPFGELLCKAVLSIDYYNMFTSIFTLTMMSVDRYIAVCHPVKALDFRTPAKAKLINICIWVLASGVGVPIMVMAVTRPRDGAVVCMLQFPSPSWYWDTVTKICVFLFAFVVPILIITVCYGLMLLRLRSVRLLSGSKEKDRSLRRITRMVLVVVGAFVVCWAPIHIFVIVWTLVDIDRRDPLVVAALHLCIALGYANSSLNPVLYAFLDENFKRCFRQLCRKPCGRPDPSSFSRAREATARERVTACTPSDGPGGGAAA
T7 sequence (P35372 whole entry): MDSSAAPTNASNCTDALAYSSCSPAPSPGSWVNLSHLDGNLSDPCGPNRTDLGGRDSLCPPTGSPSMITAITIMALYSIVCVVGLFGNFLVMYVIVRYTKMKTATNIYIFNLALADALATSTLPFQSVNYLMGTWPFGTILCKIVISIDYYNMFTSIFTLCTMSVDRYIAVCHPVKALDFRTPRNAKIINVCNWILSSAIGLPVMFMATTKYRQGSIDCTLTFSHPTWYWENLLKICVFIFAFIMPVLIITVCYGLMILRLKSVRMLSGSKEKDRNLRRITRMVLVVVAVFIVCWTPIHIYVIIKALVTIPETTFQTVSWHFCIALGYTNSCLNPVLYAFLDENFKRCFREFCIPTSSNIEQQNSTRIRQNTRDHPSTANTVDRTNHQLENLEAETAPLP
T8 sequence (P25103 whole entry): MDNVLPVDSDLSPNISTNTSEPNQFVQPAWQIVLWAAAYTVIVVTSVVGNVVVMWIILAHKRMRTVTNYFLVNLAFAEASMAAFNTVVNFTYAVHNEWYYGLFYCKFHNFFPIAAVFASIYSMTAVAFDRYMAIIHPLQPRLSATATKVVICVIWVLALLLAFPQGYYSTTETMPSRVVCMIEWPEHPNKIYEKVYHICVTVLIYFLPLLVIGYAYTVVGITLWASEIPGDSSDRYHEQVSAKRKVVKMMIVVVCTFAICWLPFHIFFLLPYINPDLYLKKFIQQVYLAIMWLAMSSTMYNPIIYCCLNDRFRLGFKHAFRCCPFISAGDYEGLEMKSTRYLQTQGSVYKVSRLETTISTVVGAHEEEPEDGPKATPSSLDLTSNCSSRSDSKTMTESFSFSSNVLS
T5 sequence (P33032 whole entry): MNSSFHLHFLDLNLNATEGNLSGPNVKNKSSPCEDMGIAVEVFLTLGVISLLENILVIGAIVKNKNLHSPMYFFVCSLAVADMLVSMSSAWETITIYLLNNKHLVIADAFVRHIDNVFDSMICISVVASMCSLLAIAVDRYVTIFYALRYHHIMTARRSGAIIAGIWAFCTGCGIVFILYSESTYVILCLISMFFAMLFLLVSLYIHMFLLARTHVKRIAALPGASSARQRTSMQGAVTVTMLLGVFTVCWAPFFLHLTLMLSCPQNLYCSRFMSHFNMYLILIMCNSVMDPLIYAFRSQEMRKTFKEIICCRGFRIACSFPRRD
T3 sequence (P41968 whole entry): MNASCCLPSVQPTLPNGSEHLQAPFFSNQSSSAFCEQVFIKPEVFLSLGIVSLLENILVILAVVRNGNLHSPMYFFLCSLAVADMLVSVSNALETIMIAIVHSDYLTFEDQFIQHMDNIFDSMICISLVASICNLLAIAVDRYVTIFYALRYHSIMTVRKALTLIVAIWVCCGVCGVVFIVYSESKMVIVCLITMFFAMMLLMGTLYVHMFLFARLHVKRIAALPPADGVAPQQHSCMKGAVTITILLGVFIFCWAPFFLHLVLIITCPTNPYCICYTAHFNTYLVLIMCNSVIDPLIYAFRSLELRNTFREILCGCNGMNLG
T6 sequence (Q99705 whole entry): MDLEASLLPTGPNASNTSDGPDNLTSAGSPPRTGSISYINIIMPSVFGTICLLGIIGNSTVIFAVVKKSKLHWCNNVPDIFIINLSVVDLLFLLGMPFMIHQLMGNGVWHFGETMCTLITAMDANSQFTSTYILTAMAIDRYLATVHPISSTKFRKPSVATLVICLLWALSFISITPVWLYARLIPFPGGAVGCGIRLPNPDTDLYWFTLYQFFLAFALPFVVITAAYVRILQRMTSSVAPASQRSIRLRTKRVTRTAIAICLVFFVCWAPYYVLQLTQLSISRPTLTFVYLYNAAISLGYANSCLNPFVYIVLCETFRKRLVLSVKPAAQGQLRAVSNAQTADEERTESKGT

SMILES	A1: inhibition of radioligand binding (Human δ-opioid (DOP); human DOP membranes)	A2: inhibition of radioligand binding (Human κ-Opioid (KOP); human KOP membranes)	A3: inhibition of radioligand binding (Human Melanocortin (MC3); human MC3 membranes)	A4: inhibition of radioligand binding (Human Melanocortin (MC4); human MC4 membranes)	A5: inhibition of radioligand binding (Human melanocortin (MC5); human MC5 membranes)	A6: inhibition of radioligand binding [1, 3]	A7: inhibition of radioligand binding (Human μ-opioid (MOP); human MOP membranes, 10 µM)	A8: inhibition of radioligand binding (Human neurokinin (NK1); human NK1 membranes)	A9: inhibition of radioligand binding ([2]; human NPY-Y1 membranes)	A10: inhibition of radioligand binding (Human opioid (ORL1); human ORL1 membranes, 10 µM)	A11: inhibition of radioligand binding (Mouse urotensin (mUR2); mouse mUR2 membranes)	A6: inhibition of radioligand binding [1, 4]	A7: inhibition of radioligand binding (Human μ-opioid (MOP); human MOP membranes)	A10: inhibition of radioligand binding (Human opioid (ORL1); human ORL1 membranes)	other results
NCCCC(=O)NC1C(OCc2ccc3ccccc3c2)OC(COCc2ccc(Cl)cc2)C(O)C1OCc1ccc(Cl)cc1 (single isomer, unassigned) [compound 459]	− (“−” indicates less than 50% inhibition at 10 μM)	− (“−” indicates less than 50% inhibition at 10 μM)	+ (“+” indicates greater than 50% inhibition at 10 μM)	+ (“+” indicates greater than 50% inhibition at 10 μM)	+ (“+” indicates greater than 50% inhibition at 10 μM)	+ (“+” indicates greater than 50% inhibition at 10 μM)	− (“−” indicates less than 50% inhibition at 10 μM)	+ (“+” indicates greater than 50% inhibition at 10 μM)	− (“−” indicates less than 50% inhibition at 10 μM)	+ (“+” indicates greater than 50% inhibition at 10 μM)	− (“−” indicates less than 50% inhibition at 10 μM)				
COCC1OC(OCCc2ccccc2)C(NC(=O)CCCN)C(OCc2ccc3ccccc3c2)C1O (stereo not shown) [compound 228]															A1: inhibition of radioligand binding (Human δ-opioid (DOP); FlashPlate): − (“−” indicates less than 50% inhibition at 10 μM); A2: inhibition of radioligand binding (Human κ-Opioid (KOP); filtration): − (“−” indicates less than 50% inhibition at 10 μM); A3: inhibition of radioligand binding (Human Melanocortin (MC3); FlashPlate): − (“−” indicates less than 50% inhibition at 10 μM); A4: inhibition of radioligand binding (Human Melanocortin (MC4); FlashPlate): − (“−” indicates less than 50% inhibition at 10 μM); A5: inhibition of radioligand binding (Human melanocortin (MC5); FlashPlate): + (“+” indicates greater than 50% inhibition at 10 μM); A6: inhibition of radioligand binding ([1]; [125I]-S36057, FlashPlate): − (“−” indicates less than 50% inhibition at 10 μM); A7: inhibition of radioligand binding (Human μ-opioid (MOP); FlashPlate): − (“−” indicates less than 50% inhibition at 10 μM); A8: inhibition of radioligand binding (Human neurokinin (NK1); filtration): + (“+” indicates greater than 50% inhibition at 10 μM); A9: inhibition of radioligand binding ([2]; FlashPlate): − (“−” indicates less than 50% inhibition at 10 μM); A10: inhibition of radioligand binding (Human opioid (ORL1); FlashPlate): − (“−” indicates less than 50% inhibition at 10 μM); A11: inhibition of radioligand binding (Mouse urotensin (mUR2); FlashPlate): − (“−” indicates less than 50% inhibition at 10 μM)
NCCCC(=O)NC1C(OCc2ccc3ccccc3c2)OC(COCc2ccc(Cl)cc2)C(O)C1OCc1ccc(Cl)cc1 (stereo not shown) [compound 392]	− (“−” indicates less than 50% inhibition at 10 μM)	− (“−” indicates less than 50% inhibition at 10 μM)	+ (“+” indicates greater than 50% inhibition at 10 μM)	+ (“+” indicates greater than 50% inhibition at 10 μM)	+ (“+” indicates greater than 50% inhibition at 10 μM)	− (“−” indicates less than 50% inhibition at 10 μM)	− (“−” indicates less than 50% inhibition at 10 μM)	+ (“+” indicates greater than 50% inhibition at 10 μM)	− (“−” indicates less than 50% inhibition at 10 μM)	− (“−” indicates less than 50% inhibition at 10 μM)	− (“−” indicates less than 50% inhibition at 10 μM)				
N=C(N)NCCC(=O)NC1C(OCc2ccc(-c3ccccc3)cc2)OC(COCc2ccc(Cl)cc2)C(O)C1OCc1ccc(-c2ccccc2)cc1 (stereo not shown) [compound 416]	− (“−” indicates less than 50% inhibition at 10 μM)	− (“−” indicates less than 50% inhibition at 10 μM)	+ (“+” indicates greater than 50% inhibition at 10 μM)	+ (“+” indicates greater than 50% inhibition at 10 μM)	+ (“+” indicates greater than 50% inhibition at 10 μM)			+ (“+” indicates greater than 50% inhibition at 10 μM)	− (“−” indicates less than 50% inhibition at 10 μM)		− (“−” indicates less than 50% inhibition at 10 μM)	+ (“+” indicates greater than 50% inhibition at 10 μM)	− (“−” indicates less than 50% inhibition at 10 μM)	+ (“+” indicates greater than 50% inhibition at 10 μM)	
NCCC(=O)N[C@H]1C(OCc2ccc3ccccc3c2)O[C@H](COCc2ccc3ccccc3c2)[C@@H](O)[C@@H]1OCc1ccc2ccccc2c1 (stereo partly shown) [compound 442]	− (“−” indicates less than 50% inhibition at 10 μM)	− (“−” indicates less than 50% inhibition at 10 μM)	+ (“+” indicates greater than 50% inhibition at 10 μM)	+ (“+” indicates greater than 50% inhibition at 10 μM)	+ (“+” indicates greater than 50% inhibition at 10 μM)			+ (“+” indicates greater than 50% inhibition at 10 μM)	− (“−” indicates less than 50% inhibition at 10 μM)		− (“−” indicates less than 50% inhibition at 10 μM)	+ (“+” indicates greater than 50% inhibition at 10 μM)	− (“−” indicates less than 50% inhibition at 10 μM)	+ (“+” indicates greater than 50% inhibition at 10 μM)	
